Columns and labels:
Aurora A = biological target: T1, Aurora A (Homo sapiens, UniProt O14965); experiment: Kinobeads assay, Aurora A; type: binding; conditions: for IC50: lysate of pervanadate-treated Jurkat cells, read-out: Inhibition values (IC50) Aur A
T1 construct: cell lysates from Jurkat cells (ATCC TIB-152) used; endogenous in cells; host or cells: Jurkat cells (ATCC TIB-152), treated with pervanadate
T1 sequence (O14965 1-403): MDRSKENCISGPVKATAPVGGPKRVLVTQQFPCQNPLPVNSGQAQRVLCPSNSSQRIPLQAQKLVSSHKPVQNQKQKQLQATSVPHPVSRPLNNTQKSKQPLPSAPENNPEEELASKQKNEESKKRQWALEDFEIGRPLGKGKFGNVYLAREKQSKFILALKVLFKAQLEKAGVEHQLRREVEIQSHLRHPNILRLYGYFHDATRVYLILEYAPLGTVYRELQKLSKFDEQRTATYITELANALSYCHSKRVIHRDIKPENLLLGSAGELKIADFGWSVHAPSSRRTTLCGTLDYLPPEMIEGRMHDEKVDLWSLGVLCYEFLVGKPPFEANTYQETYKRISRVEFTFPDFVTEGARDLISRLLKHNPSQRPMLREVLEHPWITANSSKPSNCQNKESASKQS

Aurora B = biological target: T2, Aurora B (Homo sapiens, UniProt Q96GD4); experiment: Kinobeads assay, Aurora B; type: binding; conditions: for IC50: lysate of pervanadate-treated Jurkat cells, read-out: Inhibition values (IC50) Aur B
T2 construct: cell lysates from Jurkat cells (ATCC TIB-152) used; endogenous in cells; host or cells: Jurkat cells (ATCC TIB-152), treated with pervanadate
T2 sequence (Q96GD4 whole entry): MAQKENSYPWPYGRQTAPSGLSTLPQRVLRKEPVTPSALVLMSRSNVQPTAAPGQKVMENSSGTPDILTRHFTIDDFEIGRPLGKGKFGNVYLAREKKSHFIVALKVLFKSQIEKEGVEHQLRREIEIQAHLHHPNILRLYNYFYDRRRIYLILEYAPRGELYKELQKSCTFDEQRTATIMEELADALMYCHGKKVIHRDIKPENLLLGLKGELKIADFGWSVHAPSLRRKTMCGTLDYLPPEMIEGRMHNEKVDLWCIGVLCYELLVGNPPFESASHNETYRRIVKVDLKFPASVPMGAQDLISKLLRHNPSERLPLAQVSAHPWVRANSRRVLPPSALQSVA

JAK3/AurA Fold Selectivity (Aurora A) | IC50 (Aurora A) [nM] | JAK3/AurB Fold Selectivity (Aurora B) | IC50 (Aurora B) [nM] | Structure (SMILES)
>50 Fold | 1000 to 10000 | 10-50 Fold | 100 to 1000 | CN(C)CCCn1cc(Nc2ncc3cnn(Cc4c(F)c(F)cc(N5CCOCC5)c4F)c3n2)cn1 [Example 42, N-(1-(3-(Dimethylamino)propyl)-1H-pyrazol-4-yl)-1-(2,3,6-trifluoro-5-morpholinobenzyl)-1H-pyrazolo[3,4-d]pyrimidin-6-amine]
>50 Fold | 1000 to 10000 | >50 Fold | 100 to 1000 | CN(C)CCCn1cc(Nc2ncc3cnn(Cc4cccc(N5CCOCC5)c4F)c3n2)cn1 [Example 43, N-(1-(3-(Dimethylamino)propyl)-1H-pyrazol-4-yl)-1-(2-fluoro-3-morpholinobenzyl)-1H-pyrazolo[3,4-d]pyrimidin-6-amine]
10-50 Fold | 100 to 1000 | 10-50 Fold | 100 to 1000 | OCCn1cc(Nc2ncc3cnn(Cc4cc(N5CCOCC5)ccc4F)c3n2)cn1 [Example 44, 2-(4-((1-(2-Fluoro-5-morpholinobenzyl)-1H-pyrazolo[3,4-d]pyrimidin-6-yl)amino)-1H-pyrazol-1-yl)ethanol]
10-50 Fold | 100 to 1000 | 10-50 Fold | 100 to 1000 | OCCn1cc(Nc2ncc3cnn(Cc4c(F)c(F)cc(N5CCOCC5)c4F)c3n2)cn1 [Example 45, 2-(4-((1-(2,3,6-Trifluoro-5-morpholinobenzyl)-1H-pyrazolo[3,4-d]pyrimidin-6-yl)amino)-1H-pyrazol-1-yl)ethanol]
10-50 Fold | 100 to 1000 | 10-50 Fold | 100 to 1000 | O=C1COCCN1c1cccc(Cn2ncc3cnc(Nc4cnn(CCO)c4)nc32)c1F [Example 46, 4-(2-Fluoro-3-((6-((1-(2-hydroxyethyl)-1H-pyrazol-4-yl)amino)-1H-pyrazolo[3,4-d]pyrimidin-1-yl)methyl)phenyl)morpholin-3-one]
10-50 Fold | 100 to 1000 | 10-50 Fold | 100 to 1000 | OCCn1cc(Nc2ncc3cnn(Cc4cccc(N5CCNCC5)c4)c3n2)cn1 [Example 47, 2-(4-((1-(3-(piperazin-1-yl)benzyl)-1H-pyrazolo[3,4-d]pyrimidin-6-yl)amino)-1H-pyrazol-1-yl)ethanol]
>50 Fold | 1000 to 10000 | >50 Fold | 1000 to 10000 | c1cc(Cn2ncc3cnc(Nc4cnn(CC5CCCNC5)c4)nc32)cc(N2CCOCC2)c1 (stereo not drawn) [Example 48, 1-(3-Morpholinobenzyl)-N-(1-(piperidin-3-ylmethyl)-1H-pyrazol-4-yl)-1H-pyrazolo[3,4-d]pyrimidin-6-amine]
10-50 Fold | 100 to 1000 | >50 Fold | 1000 to 10000 | Cn1cc(Nc2ncc3cnn(Cc4cc(F)cc(N5CCOCC5)c4)c3n2)cn1 [Example 49, 1-(3-Fluoro-5-morpholinobenzyl)-N-(1-methyl-1H-pyrazol-4-yl)-1H-pyrazolo[3,4-d]pyrimidin-6-amine]
>50 Fold | 100 to 1000 | >50 Fold | 100 to 1000 | CN(C)CCCn1cc(Nc2ncc3cnn(Cc4cccc(N5CCOCC5=O)c4F)c3n2)cn1 [Example 50, 4-(3-((6-((1-(3-(Dimethylamino)propyl)-1H-pyrazol-4-yl)amino)-1H-pyrazolo[3,4-d]pyrimidin-1-yl)methyl)-2-fluorophenyl)morpholin-3-one]
10-50 Fold | 100 to 1000 | >50 Fold | 100 to 1000 | OCCn1cc(Nc2ncc3cnn(Cc4cc(F)cc(N5CCOCC5)c4)c3n2)cn1 [Example 51, 2-(4-((1-(3-Fluoro-5-morpholinobenzyl)-1H-pyrazolo[3,4-d]pyrimidin-6-yl)amino)-1H-pyrazol-1-yl)ethanol]
>50 Fold | 100 to 1000 | >50 Fold | 1000 to 10000 | Cn1cc(Nc2ncc3cnn(Cc4cc(F)cc(N5CCOCC5=O)c4)c3n2)cn1 [Example 52, 4-(3-Fluoro-5-((6-((1-methyl-1H-pyrazol-4-yl)amino)-1H-pyrazolo[3,4-d]pyrimidin-1-yl)methyl)phenyl)morpholin-3-one]
>50 Fold | 100 to 1000 | >50 Fold | 100 to 1000 | Cn1cc(Nc2ncc3cnn(Cc4cc(N5CCOCC5=O)cc(F)c4F)c3n2)cn1 [Example 53, 4-(3,4-Difluoro-5-((6-((1-methyl-1H-pyrazol-4-yl)amino)-1H-pyrazolo[3,4-d]pyrimidin-1-yl)methyl)phenyl)morpholin-3-one]
>50 Fold | 100 to 1000 | >50 Fold | 1000 to 10000 | Cn1cc(Nc2ncc3cnn(Cc4cccc(N5CCNCC5=O)c4F)c3n2)cn1 [Example 54, 1-(2-Fluoro-3-((6-((1-methyl-1H-pyrazol-4-yl)amino)-1H-pyrazolo[3,4-d]pyrimidin-1-yl)methyl)phenyl)piperazin-2-one]
10-50 Fold | 100 to 1000 | 10-50 Fold | 100 to 1000 | O=C1CNCCN1c1cccc(Cn2ncc3cnc(Nc4cnn(CCO)c4)nc32)c1F [Example 55, 1-(2-Fluoro-3-((6-((1-(2-hydroxyethyl)-1H-pyrazol-4-yl)amino)-1H-pyrazolo[3,4-d]pyrimidin-1-yl)methyl)phenyl)piperazin-2-one]
>50 Fold | 1000 to 10000 | >50 Fold | 1000 to 10000 | OCCn1cc(Nc2ncc3cnn(Cc4cc(N5CCOCC5)cc(F)c4F)c3n2)cn1 [Example 56, 2-(4-((1-(2,3-Difluoro-5-morpholinobenzyl)-1H-pyrazolo[3,4-d]pyrimidin-6-yl)amino)-1H-pyrazol-1-yl)ethanol]
10-50 Fold | 100 to 1000 | 10-50 Fold | 100 to 1000 | O=C1CNCCN1c1cccc(Cn2ncc3cnc(Nc4cnn(CCO)c4)nc32)c1 [Example 57, 1-(3-((6-((1-(2-Hydroxyethyl)-1H-pyrazol-4-yl)amino)-1H-pyrazolo[3,4-d]pyrimidin-1-yl)methyl)phenyl)piperazin-2-one]
10-50 Fold | 100 to 1000 | 10-50 Fold | 100 to 1000 | O=C1COCCN1c1cc(F)cc(Cn2ncc3cnc(Nc4cnn(CCO)c4)nc32)c1 [Example 58, 4-(3-Fluoro-5-((6-((1-(2-hydroxyethyl)-1H-pyrazol-4-yl)amino)-1H-pyrazolo[3,4-d]pyrimidin-1-yl)methyl)phenyl)morpholin-3-one]
10-50 Fold | 100 to 1000 | 10-50 Fold | 100 to 1000 | O=C1COCCN1c1cc(F)c(F)c(Cn2ncc3cnc(Nc4cnn(CCO)c4)nc32)c1 [Example 59, 4-(3,4-Difluoro-5-((6-((1-(2-hydroxyethyl)-1H-pyrazol-4-yl)amino)-1H-pyrazolo[3,4-d]pyrimidin-1-yl)methyl)phenyl)morpholin-3-one]

Source: US9040545B2, “Heterocyclyl pyrazolopyrimidine analogues as selective JAK inhibitors” (Cellzome Limited, priority 2010, dated 2015)
